Source: PubChem BioAssay (NCI)
“And” between values parts separate entries of the source, which are not always exact repeats. Identical values can stand only once.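 Five compound concentrations were applied to cells in 96-well plates for 48 hours; endpoints were derived by simple linear interpolation of the resulting dose-response curve. GI50 marks 50% less growth. TGI is the concentration that stops growth completely.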

Experiments:
Assay in all cases: NCI tumour cell line growth inhibition, 48 h
[1] = test system: SR leukemia
[2] = test system: HS 578T breast
[3] = test system: HL-60(TB) leukemia
[4] = test system: OVCAR-5 ovarian
[5] = test system: NCI-H23 lung
[6] = test system: LOX IMVI melanoma
[7] = test system: OVCAR-4 ovarian
[8] = test system: A498 renal
[9] = test system: DU-145 prostate
[10] = test system: U251 CNS
[11] = test system: SNB-75 CNS

Compound	TGI [1]	TGI [2]	TGI [3]	TGI [4]	TGI [5]	TGI [6]	TGI [7]	TGI [8]	TGI [9]	TGI [10]	TGI [11]	GI50 [4]	GI50 [5]	GI50 [6]	GI50 [9]	GI50 [7]	GI50 [8]	GI50 [2]	GI50 [10]
Nc1ncnc2c1[nH]c(=O)n2-c1ccccc1	> 100 µM	> 100 µM	> 100 µM	> 100 µM	> 100 µM	> 100 µM	> 100 µM	> 100 µM											
O=C(NCc1ccccc1)c1n[nH][nH]c1=O		> 100 µM	> 100 µM	> 100 µM	> 100 µM		> 100 µM		> 100 µM	> 100 µM	> 100 µM								
CCOC(=O)Nc1sc2c(c1C#N)CCCC2	> 100 µM	> 100 µM	> 100 µM	> 100 µM	> 100 µM	> 100 µM	> 100 µM	> 100 µM	> 100 µM	> 100 µM									
O=C1c2cc3c(cc2-c2c1c1ccc(F)cc1c(=O)n2C[C@H](O)[C@@H](O)[C@H](O)CO)OCO3				0.782 µM	0.256 µM	0.137 µM	0.874 µM	0.262 µM	1.99 µM			0.222 µM	0.046 µM	0.0299 µM	0.0513 µM	0.185 µM	0.12 µM		
COc1ccc(C(=C2C=CC=C2)c2ccc(OC)cc2)cc1	86.7 µM	94.4 µM	> 100 µM	88.5 µM	> 100 µM	33.7 µM	> 100 µM		> 100 µM	71.6 µM	> 100 µM								
Cc1ccc(N(Cc2ccccc2)Cc2ccccc2)cc1		> 100 µM	> 100 µM	> 100 µM	> 100 µM	> 100 µM	> 100 µM	> 100 µM	> 100 µM	> 100 µM	> 100 µM								
C[C@]12CC[C@H](O)CC1=CC[C@@H]1[C@@H]2CC[C@]2(C)C(=N/N)/C(=N\O)C[C@@H]12	> 100 µM		67.7 µM	> 100 µM	> 100 µM	> 100 µM	> 100 µM	30.8 µM	> 100 µM	43.4 µM	30.5 µM								
CC1(C(=O)O)CCC2(C)CCC3(C)C(=CC(=O)C4C5(C)CCC(O)C(C)(C)C5CCC43C)C2C1 (configuration not stated)	61 µM	65.7 µM	51.3 µM	82.9 µM	44.8 µM	41.8 µM	> 100 µM		77.3 µM	> 100 µM	> 100 µM								
CC(=O)N(C(=O)CC(=O)N1N=C(c2ccccc2)C(N=Nc2ccccc2[N+](=O)[O-])C1=O)c1ccc(Cl)cc1 (configuration not stated)		> 10 µM	> 10 µM	> 10 µM	> 10 µM	> 10 µM	> 10 µM	> 10 µM	> 10 µM	> 10 µM	> 10 µM								
COc1ccc2cc1Oc1ccc(cc1)C[C@H]1c3cc(c(OC)cc3CCN1C)Oc1c(O)c(OC)cc3c1[C@H](C2)N(C)CC3			48.2 µM	99.6 µM	95.5 µM	26.7 µM	58.1 µM	50.4 µM		60.3 µM	52 µM								
c1ccc2c(c1)Cn1c-2nc2ccccc21		> 100 µM	> 100 µM	> 100 µM	> 100 µM	> 100 µM	> 100 µM	> 100 µM	> 100 µM	> 100 µM	73.3 µM								
Oc1ccc2c(c1)c1c(n2CCN2CCOCC2)-c2ccccc2CC1	91.5 µM	56.9 µM	> 100 µM	60.5 µM	82.1 µM	57.8 µM		52.6 µM		> 100 µM	76.3 µM								
CC1=C(Cl)C=CP(=O)(Oc2ccccc2)C1 (configuration not stated)			> 10 µM	> 100 µM	> 100 µM	> 100 µM	> 100 µM			> 100 µM									
CCC(=O)NCC1CCCN2CCCCC12 (configuration not stated)		> 100 µM	> 100 µM		> 100 µM	> 100 µM	> 100 µM	> 100 µM	> 100 µM	> 100 µM	> 100 µM								
Nc1nc2c(c(-c3cccc(Cl)c3)n1)COC/C2=C\c1cccc(Cl)c1		> 100 µM	> 100 µM	> 100 µM	> 100 µM	> 100 µM	> 100 µM	> 100 µM	> 100 µM	> 100 µM	> 100 µM								
S=C(N/N=C(/c1ccccc1)c1ccccn1)N(Cc1ccccn1)Cc1ccccn1	43.5 µM	> 29.8 µM	> 100 µM	3.37 µM	1.57 µM	1.74 µM	1.73 µM		4.42 µM		2.24 µM								
O=C(C1OC1c1ccc(Br)cc1O)C12CC3CC(CC(C3)C1)C2 (configuration not stated)		47.8 µM	40.9 µM	> 100 µM	81.3 µM	28.7 µM	81.4 µM	> 100 µM	> 100 µM	30.8 µM	58.1 µM								
N#C/C(=C1/Sc2c(nc[nH]c2=O)N1c1ccccc1)c1nc2ccccc2[nH]1	> 100 µM		> 100 µM	> 100 µM	> 100 µM		> 100 µM	> 100 µM		> 100 µM	> 100 µM								
C[C@]12CCC3C4=C(CCC3C1CCC2=O)C(=O)[C@H]1O[C@H]1C4=O (some centres not stated)		> 30.5 µM	7.93 µM	10.4 µM	8.4 µM	5.18 µM	7.96 µM	31.1 µM	8.41 µM	8.38 µM	8.14 µM								
Cc1ccc(NC(=O)CC2Sc3ccccc3NC2=O)cc1C (configuration not stated)	> 100 µM		66.1 µM	> 100 µM	> 100 µM	> 100 µM	> 100 µM	> 100 µM		> 100 µM	> 100 µM								
Cc1ccccc1C(=N)c1ccccc1Cc1cccc2ccccc12	41.2 µM	26.3 µM	42.2 µM	> 100 µM	> 100 µM	31.9 µM	> 100 µM	95 µM	42.5 µM	33.9 µM									
CC1=Nc2ccccc2OC(C)=C1N=Nc1ccc2nc(C)[nH]c2c1	> 100 µM		> 100 µM	> 100 µM	> 100 µM	> 100 µM	> 100 µM	99.5 µM	> 100 µM	> 100 µM	> 100 µM								

Compound	TGI [1]	TGI [2]	TGI [3]	TGI [4]	TGI [5]	TGI [6]	TGI [7]	TGI [8]	TGI [9]	TGI [10]	TGI [11]	GI50 [4]	GI50 [5]	GI50 [6]	GI50 [9]	GI50 [7]	GI50 [8]	GI50 [2]	GI50 [10]
[N-]=[N+]=NC(c1ccccc1)(c1ccccc1)c1ccccc1		51.8 µM	39.4 µM	30.1 µM	42.4 µM	45.3 µM	57.9 µM	31.9 µM	36.1 µM	29.2 µM	34.4 µM								
Nc1c(S(=O)(=O)O)cc2cc(S(=O)(=O)O)ccc2c1N=Nc1ccc(-c2ccc(N=Nc3c(N)c(S(=O)(=O)O)cc4cc(S(=O)(=O)O)ccc34)c(S(=O)(=O)O)c2)cc1			> 100 µM	> 100 µM	> 100 µM	> 100 µM	74.7 µM	> 100 µM		> 100 µM	> 100 µM								
Oc1ccc(-c2nc3ccc(Br)cc3s2)cc1	36.2 µM		56.3 µM	63.8 µM	76 µM	30.1 µM			36.7 µM	50.8 µM									
CC1CN(C)c2ccccc2N=C1NN (configuration not stated)		> 100 µM	> 100 µM	> 100 µM	> 100 µM		> 100 µM	> 100 µM	> 100 µM	> 100 µM									
Cc1ccc(-c2cc(-c3ccco3)c(C#N)c(=S)n2C2OC(CO)C(O)C(O)C2O)cc1 (configuration not stated)		> 100 µM		> 100 µM	90.4 µM and > 100 µM	38.4 µM and > 100 µM	53.6 µM and > 100 µM	> 100 µM	> 100 µM	35.6 µM and > 100 µM	> 100 µM		19.7 µM and 51.9 µM	8.19 µM and 43.1 µM	30.3 µM	14.5 µM and > 100 µM		14.8 µM and 33.2 µM	16.6 µM and 36.5 µM
Nc1nc(SCCC/C=C/I)nc2c1ncn2C1OC(COP(=O)(O)O)C(O)C1O (configuration not stated)	> 100 µM		> 100 µM	> 100 µM	> 100 µM	> 100 µM	> 100 µM	> 100 µM		> 100 µM	> 100 µM								
Nc1nccc(-c2c[nH]c3cc(Br)ccc23)n1	46.7 µM	75.7 µM	> 100 µM	49 µM	88.4 µM	53.4 µM	> 100 µM		> 100 µM	> 100 µM	> 100 µM								
N[C@@H](CCC(=O)NCP(=O)(O)O)C(=O)O	> 100 µM	> 100 µM	> 100 µM	> 100 µM	> 100 µM			> 100 µM		> 100 µM									
O=c1[nH]c(=S)[nH]c2c1C(c1ccc([N+](=O)[O-])cc1)c1c([nH]c(=S)[nH]c1=O)O2		> 100 µM	> 100 µM	> 100 µM	> 100 µM	> 100 µM	> 100 µM	> 100 µM	> 100 µM	> 100 µM									
CC1(C)O[C@H]2OC(CO[Si](C)(C)C(C)(C)C)C(N=[N+]=[N-])[C@H]2O1 (some centres not stated)	32.2 µM	51.5 µM	23.1 µM	35.2 µM	39 µM	35.9 µM	71.7 µM	53 µM		48.1 µM	59.3 µM								
C(=C(c1ccc(OC2CCCCO2)cc1)c1ccc(OC2CCCCO2)cc1)c1ccccc1 (configuration not stated)		4.44 µM	1.19 µM	2.25 µM	2.24 µM	1.14 µM	1.75 µM	2.64 µM	2.11 µM	2.34 µM	2.13 µM								
CCN(CC)CCNC(=O)c1cc2cc(NC(=O)c3cc4cc([N+](=O)[O-])ccc4[nH]3)ccc2[nH]1	> 100 µM			> 100 µM	> 100 µM	> 100 µM	> 100 µM	> 82.7 µM	31.8 µM		> 100 µM								
Cn1c(=O)c2c(nc3n2CC(C(=O)O)N3)n(C)c1=O (configuration not stated)		> 100 µM	> 100 µM	> 100 µM	> 100 µM	> 100 µM	> 100 µM	> 100 µM	> 100 µM	> 100 µM	> 100 µM								
COC(=O)[C@@H](O)[C@](O)(CCC(C)C)C(=O)O[C@@H]1C(OC)=C[C@]23CCCN2CCc2cc4c(cc2[C@H]13)OCO4			2.96 µM	15.2 µM	5.7 µM	5.21 µM	5.77 µM	4.45 µM		6.05 µM	14.1 µM								
N#CC(Cc1ccccc1)N(CCC1=CCCCC1)C(c1ccccc1)c1ccccc1 (configuration not stated)		> 100 µM		> 100 µM	> 100 µM		> 100 µM	> 100 µM	> 100 µM	> 100 µM	> 100 µM								
Nc1c(-c2ccc(Cl)c(Cl)c2)c2ccc([N+](=O)[O-])cc2c(=O)n1-c1nc2ccccc2s1	> 100 µM			> 74.2 µM	3.13 µM	27.3 µM	> 100 µM	24.3 µM	> 100 µM	> 34.1 µM	8.23 µM								
CCCCCCCC/C=C\CCCCCCCCCCCC(=O)O			34.6 µM	> 125 µM	80.8 µM	70.8 µM	> 115 µM			110 µM	113 µM								
CCOP(=O)(OCC)C(F)(F)c1ccc(CC(NC(=O)OC(C)(C)C)C(=O)O)cc1 (configuration not stated)		> 10 µM		> 10 µM	> 10 µM	> 10 µM	> 10 µM	> 10 µM	> 10 µM	> 10 µM	> 10 µM								
CC(=O)Nn1c(=S)[nH]c2ccccc21	> 100 µM	> 100 µM	> 100 µM	> 100 µM	> 100 µM	> 100 µM	> 100 µM	> 100 µM	> 100 µM	> 100 µM									
c1ccc2c3[nH]c(c2c1)=Nc1ccc(cc1)-c1nc2cc(ccc2o1)N=c1[nH]c(c2ccccc12)=Nc1ccc2nc(oc2c1)-c1ccc(cc1)N=3	> 100 µM	> 100 µM	> 100 µM	> 100 µM	> 100 µM	> 100 µM	> 100 µM	> 100 µM	> 100 µM	> 100 µM									
C=CC1(CC/C(=C\[N+](=O)[O-])c2ccc(OC)c(OC)c2)OCC(C)(C)CO1	29.4 µM	79.4 µM	34.1 µM	35.2 µM	37 µM	55.8 µM	31.5 µM		33.1 µM	> 100 µM									
